Laboratory results from US20100292279A1, “Bis-(Sulfonylamino) Derivatives in Therapy” (ASTRAZENECA AB, priority 2009, published 2010).

Target: T1, human mPGES-1 (Homo sapiens, UniProt O14684)
T1 construct: host or cells: microsomes
T1 sequence (O14684 1-152): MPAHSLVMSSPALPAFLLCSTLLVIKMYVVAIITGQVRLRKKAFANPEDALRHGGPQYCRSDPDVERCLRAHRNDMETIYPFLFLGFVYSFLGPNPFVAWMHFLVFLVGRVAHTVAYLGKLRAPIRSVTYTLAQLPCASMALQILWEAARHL
Test: Microsomal prostaglandin E synthase biochemical assay
Details: microsome preparation containing human mPGES-1; substrate PGH2 10.8 μM, GSH 2.5 mM, pH 6.8; PGE2 by HTRF; average of at least n=2
Protocol: Compounds were tested as inhibitors of microsomal prostaglandin E synthase activity in microsomal prostaglandin E synthase assays and whole cell assays. These assays measure prostaglandin E2 (PGE2) synthesis which is taken as a measure of prostaglandin E synthase activity. Microsomal prostaglandin E synthase biochemical assays used microsomal prostaglandin E synthase-1 in microsomal preparations. The source of the microsomes can be for example interleukin-1β-stimulated human A549 cells (which express human mPGES-1) or Sf9 cells transfected with plasmids encoding human mPGES-1 cDNA.
A solution of test compound was added to a diluted microsome preparation containing is human mPGES-1 and pre-incubated for 15 minutes in potassium phosphate buffer pH 6.8 with cofactor glutathione (GSH). Corresponding solutions without test compound were used as positive controls, and corresponding solutions without test compound and without microsomes were used as negative controls. The enzymatic reaction was then started by addition of the substrate PGH2 in an organic solution (dry acetonitrile).
The reaction was stopped after one minute by adding an acidic solution (pH 1.9) of ferric chloride and citrate (final concentrations 7 mM and 47 mM respectively), by which the PGH2 was sequestered (the PGH2 is reduced to mainly 12-hydroxy heptadecatrineoic acid (12-HHT) which is not detected by the subsequent PGE2 detection step). The resulting solution was then pH neutralized by addition of potassium phosphate buffer, prior to diluting an aliquot of the resulting solution in a weak potassium phosphate buffer (50 mM, pH 6.8) containing 0.2% BSA (w/v). […] The PGE2 formed was quantified by use of a commercial HTRF based kit (catalogue #62PG2PEC or #62P2APEC from Cisbio International). 100% activity was defined as the PGE2 production in positive controls subtracted by the PGE2 production in the negative controls. IC50 values were then determined using standard procedures.

Row | Compound | IC50
1 | NS(=O)(=O)c1ccccc1S(=O)(=O)NC(=O)c1ccc(OCc2ccccc2)c(OCC2CC2)c1 [Example 1, 4-(Benzyloxy)-3-(cyclopropylmethoxy)-N-(2-sulfamoylphenylsulfonyl)benzamide] | 280 nM
2 | COc1cc(C(=O)NS(=O)(=O)c2ccccc2S(N)(=O)=O)ccc1COc1ccc(C)cc1 [Example 2, 3-Methoxy-N-(2-sulfamoylphenylsulfonyl)-4-(p-tolyloxymethyl)benzamide] | 31 nM
3 | NS(=O)(=O)c1ccccc1S(=O)(=O)NC(=O)c1ccc(C#Cc2ccccc2)c(OCC(F)F)c1 [Example 3, 3-(2,2-Difluoroethoxy)-4-(phenylethynyl)-N-(2-sulfamoylphenylsulfonyl)benzamide] | 8.2 nM
4 | Cc1ccc(C#Cc2ccc(C(=O)NS(=O)(=O)c3ccccc3S(N)(=O)=O)cc2OCC(F)F)cc1 [Example 4, 3-(2,2-Difluoroethoxy)-N-(2-sulfamoylphenylsulfonyl)-4-(p-tolylethynyl)benzamide] | 5 nM
5 | NS(=O)(=O)c1ccccc1S(=O)(=O)NC(=O)c1ccc(C#CC2CCCC2)c(OCC(F)F)c1 [Example 5, 4-(Cyclopentylethynyl)-3-(2,2-difluoroethoxy)-N-(2-sulfamoylphenylsulfonyl)benzamide] | 14 nM
6 | CC(C)(C)C#Cc1ccc(C(=O)NS(=O)(=O)c2ccccc2S(N)(=O)=O)cc1OCC(F)F [Example 6, 3-(2,2-Difluoroethoxy)-4-(3,3-dimethylbut-1-ynyl)-N-(2-sulfamoylphenylsulfonyl)benzamide] | 25 nM
7 | NS(=O)(=O)c1ccccc1S(=O)(=O)NC(=O)c1ccc(-c2cc3ccccc3o2)c(OCC(F)F)c1 [Example 7, 4-(Benzofuran-2-yl)-3-(2,2-difluoroethoxy)-N-(2-sulfamoylphenylsulfonyl)benzamide] | 4.5 nM
8 | Cc1ccccc1C#Cc1ccc(C(=O)NS(=O)(=O)c2ccccc2S(N)(=O)=O)cc1 [Example 8, N-(2-Sulfamoylphenylsulfonyl)-4-(o-tolylethynyl)benzamide] | 6.4 nM
9 | NS(=O)(=O)c1ccccc1S(=O)(=O)NC(=O)c1ccc(C#Cc2ccc(Cl)cc2)cc1 [Example 10, 4-((4-Chlorophenyl)ethynyl)-N-(2-sulfamoylphenylsulfonyl)benzamide] | 3.7 nM
10 | NS(=O)(=O)c1ccccc1S(=O)(=O)NC(=O)c1ccc(C#Cc2ccc(F)cc2)cc1 [Example 11, 4-((4-Fluorophenyl)ethynyl)-N-(2-sulfamoylphenylsulfonyl)benzamide] | 10 nM
11 | NS(=O)(=O)c1ccccc1S(=O)(=O)NC(=O)c1ccc(C#Cc2cccc(Cl)c2)cc1 [Example 12, 4-((3-Chlorophenyl)ethynyl)-N-(2-sulfamoylphenylsulfonyl)benzamide] | 4.4 nM
12 | NS(=O)(=O)c1ccccc1S(=O)(=O)NC(=O)c1ccc(C#Cc2cccc(F)c2)cc1 [Example 13, 4-((3-Fluorophenyl)ethynyl)-N-(2-sulfamoylphenylsulfonyl)benzamide] | 5.7 nM
13 | COc1cc(C(=O)NS(=O)(=O)c2ccccc2S(N)(=O)=O)ccc1C#Cc1ccccc1C [Example 14, 3-Methoxy-N-(2-sulfamoylphenylsulfonyl)-4-(o-tolylethynyl)benzamide] | 11 nM
14 | COc1cc(C(=O)NS(=O)(=O)c2ccccc2S(N)(=O)=O)ccc1C#Cc1ccc(Cl)cc1 [Example 15, 4-((4-Chlorophenyl)ethynyl)-3-methoxy-N-(2-sulfamoylphenylsulfonyl)benzamide] | 8.4 nM
15 | COc1cc(C(=O)NS(=O)(=O)c2ccccc2S(N)(=O)=O)ccc1C#Cc1ccc(F)cc1 [Example 16, 4-((4-Fluorophenyl)ethynyl)-3-methoxy-N-(2-sulfamoylphenylsulfonyl)benzamide] | 16 nM
16 | COc1cc(C(=O)NS(=O)(=O)c2ccccc2S(N)(=O)=O)ccc1C#Cc1ccc(C)cc1 [Example 17, 3-Methoxy-N-(2-sulfamoylphenylsulfonyl)-4-(p-tolylethynyl)benzamide] | 6.3 nM
17 | COc1cc(C(=O)NS(=O)(=O)c2ccccc2S(N)(=O)=O)ccc1C#Cc1cccc(C)c1 [Example 18, 3-Methoxy-N-(2-sulfamoylphenylsulfonyl)-4-(m-tolylethynyl)benzamide] | 12 nM

Row | Compound | IC50
18 | COc1cc(C(=O)NS(=O)(=O)c2ccccc2S(N)(=O)=O)ccc1C#Cc1cccc(Cl)c1 [Example 19, 4-((3-Chlorophenyl)ethynyl)-3-methoxy-N-(2-sulfamoylphenylsulfonyl)benzamide] | 7.3 nM
19 | COc1cc(C(=O)NS(=O)(=O)c2ccccc2S(N)(=O)=O)ccc1C#Cc1cccc(F)c1 [Example 20, 4-((3-Fluorophenyl)ethynyl)-3-methoxy-N-(2-sulfamoylphenylsulfonyl)benzamide] | 12 nM
20 | NS(=O)(=O)c1ccccc1S(=O)(=O)NC(=O)c1ccc(-c2cc3ccccc3o2)c(OCC2CC2)c1 [Example 21, 4-(Benzofuran-2-yl)-3-(cyclopropylmethoxy)-N-(2-sulfamoylphenylsulfonyl)benzamide] | 5 nM
21 | CC(C)(C)C#Cc1ccc(C(=O)NS(=O)(=O)c2ccccc2S(N)(=O)=O)cc1OCC1CC1 [Example 22, 3-(Cyclopropylmethoxy)-4-(3,3-dimethylbut-1-ynyl)-N-(2-sulfamoylphenylsulfonyl)benzamide] | 13 nM
22 | CC(C)C#Cc1ccc(C(=O)NS(=O)(=O)c2ccccc2S(N)(=O)=O)cc1OCC1CC1 [Example 23, 3-(Cyclopropylmethoxy)-4-(3-methylbut-1-ynyl)-N-(2-sulfamoylphenylsulfonyl)benzamide] | 34 nM
23 | NS(=O)(=O)c1ccccc1S(=O)(=O)NC(=O)c1ccc(CN2CC(F)(F)C(F)(F)C2)cc1 [Example 24, N-(2-Sulfamoylphenylsulfonyl)-4-((3,3,4,4-tetrafluoropyrrolidin-1-yl)methyl)benzamide] | 2900 nM
24 | CC(C)C#Cc1ccc(C(=O)NS(=O)(=O)c2ccccc2S(N)(=O)=O)cc1OCCC(C)(C)O [Example 25, 3-(3-Hydroxy-3-methylbutoxy)-4-(3-methylbut-1-ynyl)-N-(2-sulfamoylphenylsulfonyl)benzamide] | 130 nM
25 | CC(C)C#Cc1ccc(C(=O)NS(=O)(=O)c2ccccc2S(N)(=O)=O)cc1OC(C)C [Example 26, 3-Isopropoxy-4-(3-methylbut-1-ynyl)-N-(2-sulfamoylphenylsulfonyl)benzamide] | 85 nM
26 | COC(C)(C)CCOc1cc(C(=O)NS(=O)(=O)c2ccccc2S(N)(=O)=O)ccc1C#CC1CC1 [Example 27, 4-(Cyclopropylethynyl)-3-(3-methoxy-3-methylbutoxy)-N-(2-sulfamoylphenylsulfonyl)benzamide] | 85 nM
27 | CC(C)C#Cc1ccc(C(=O)NS(=O)(=O)c2ccccc2S(N)(=O)=O)cc1OCC(C)C [Example 28, 3-Isobutoxy-4-(3-methylbut-1-ynyl)-N-(2-sulfamoylphenylsulfonyl)benzamide] | 20 nM
28 | COc1cc(C(=O)NS(=O)(=O)c2ccccc2S(N)(=O)=O)ccc1OCc1ccc(C)cc1 [Example 29, 3-Methoxy-4-(4-methylbenzyloxy)-N-(2-sulfamoylphenylsulfonyl)benzamide] | 390 nM
29 | NS(=O)(=O)c1ccccc1S(=O)(=O)NC(=O)c1ccc(OCc2ccccc2)c(OCCC(F)(F)F)c1 [Example 30, 4-(Benzyloxy)-N-(2-sulfamoylphenylsulfonyl)-3-(3,3,3-trifluoropropoxy)benzamide] | 130 nM
30 | NS(=O)(=O)c1ccccc1S(=O)(=O)NC(=O)c1ccc(C#CC(O)(C2CC2)C2CC2)cc1 [Example 31, 4-(3,3-Dicyclopropyl-3-hydroxyprop-1-ynyl)-N-(2-sulfamoylphenylsulfonyl)benzamide] | 220 nM
31 | CCCC(C)C#Cc1ccc(C(=O)NS(=O)(=O)c2ccccc2S(N)(=O)=O)cc1CO (stereo not shown) [Example 32, 3-(Hydroxymethyl)-4-(3-methylhex-1-ynyl)-N-(2-sulfamoylphenylsulfonyl)benzamide] | 60 nM
32 | CC(C)Oc1cc(C(=O)NS(=O)(=O)c2ccccc2S(N)(=O)=O)ccc1C#Cc1ccc(C(F)(F)F)cc1 [Example 33, 3-Isopropoxy-N-(2-sulfamoylphenylsulfonyl)-4-((4-(trifluoromethyl)phenyl)ethynyl)benzamide] | 54 nM
33 | CCCC(C)C#Cc1ccc(C(=O)NS(=O)(=O)c2ccccc2S(N)(=O)=O)cc1OCCOCC(F)(F)F (stereo not shown) [Example 34, 4-(3-Methylhex-1-ynyl)-N-(2-sulfamoylphenylsulfonyl)-3-(2-(2,2,2-trifluoroethoxy)ethoxy)benzamide] | 12 nM
34 | CCCC(C)C#Cc1ccc(C(=O)NS(=O)(=O)c2ccccc2S(N)(=O)=O)cc1OCCC(F)(F)F (stereo not shown) [Example 35, 4-(3-Methylhex-1-ynyl)-N-(2-sulfamoylphenylsulfonyl)-3-(3,3,3-trifluoropropoxy)benzamide] | 14 nM
